Experimental data published in US10369105B2, “Nanoparticulate compositions for targeted delivery of acid labile, lipophilic prodrugs of cancer chemotherapeutics and their preparation” (Veiled Therapeutics LLC, priority 2014, dated 2019).

Columns and labels:
[1] = breast cancer patients; cited from earlier work
[2] = MTD/tolerability study ATL-1, IV Q1Dx5, nontumored mice
Procedure: (§1) MTD study consisted of two major phases:
(§2) Material remaining from the dosing emulsion solutions was shipped back to Arbor Therapeutics after the end of the treatment phase. […] The assessment of returned material was carried out side by side with material retained.
(§3) Paclitaxel was included as a reference compound. • Tumor Model:
The studies ATL-1 and ATL-2 consisted each of six groups of five nontumored mice per group for a total of 30 mice on Day 1, the first day of treatment. All treatments were administered intravenously (IV) once a day for five consecutive days (Q1Dx5) beginning on Day 1.
(§4) Animals in Group 5 (Emulsion control) were treated with a drug free formulation (injection volume of 0.21 mL/20 g of body weight).

[3] = system: human MDA-MB-231 mammary tumor xenografts; experiment: Antitumor efficacy study ATL-3, IV Q1Dx5 and Q4Dx3; format: in vivo, human tumor in female athymic NCr-nu/nu mice; settings: for complete tumor regressions: ten mice
Procedure: Experiment ATL-3 was performed to evaluate the antitumor activity of the intravenous (IV) treatment with formulated ART-207 when administered on two different schedules to female, athymic NCr-nu/nu mice implanted subcutaneously (SC) with human MDA-MB-231 mammary tumor xenografts. Paclitaxel was included as a reference compound. • Tumor Model:
Individual tumors of 90 animals grew to 88-216 mg in weight (88-216 mm3 in size) on Day 10 after tumor fragments implantation, the day of treatment initiation. […] The time points are indicated starting from the first day of treatment with formulated ART-207, vehicle control and Paclitaxel. • Study Design: […]
Animals in Groups 2, 3, and 4 were treated with formulated ART-207 which was administered IV on a Q1Dx5 schedule starting on Day 0 (Days 0-4) at doses of 105.2, 78.9, and 52.6 mg/kg/injection, respectively. Animals in Group 5 (Emulsion control) were treated IV on Q1Dx5 schedule starting on Day 0 with a drug free formulation. […] Animals in Group 7 were treated with formulated ART-207 which was administered IV once every four days for a total of three injections (Q4Dx3) starting on Day 0 (Days 0, 4, and 8) at a dose of 78.9 mg/kg/injection. Animals in Group 8 (Emulsion control) were treated IV on a Q4Dx3 schedule starting on Day 0 with a drug free formulation. Animals in Group 9 were treated IV on a Q4Dx3 schedule starting on Day 0 with paclitaxel at a dose of 18.9 mg/kg/injection.

[4] = PK/PD study ATL-4: plasma and tissue concentrations after single IV injection, nontumored mice; format: in vivo, female athymic NCr-nu/nu mice; settings: paclitaxel 18.9 mg/kg single IV
Procedure: Tumor Model; Experiment ATL-4. Animals were nontumored.
Experiment ATL-4: The study consisted of ten groups of three nontumored mice per group for a total of 30 mice on Day 1, one day before the treatment. All treatments were administered as a single IV injection on Day 2.

[5] = system: human MDA-MB-231 mammary tumor xenografts; experiment: MTD/tolerability and efficacy study ATL-2, IV Q1Dx5, tumored mice
Procedure: as §1, §2, §3
[…] All treatments were administered intravenously (IV) once a day for five consecutive days (Q1Dx5) beginning on Day 1.
as §4

[6] = IV Q1Dx5, formulated ART-207 72.6, 47.1, 35.7 and 23.7 mg/kg/injection, paclitaxel 15 mg/kg/injection
[7] = Study # 2, tumor size 150 mg, Q1Dx5, dose 15 mpk
[8] = paclitaxel 15 mg/kg/injection IV Q1Dx5 (Group 6)
[9] = paclitaxel 18.9 mg/kg/injection IV Q4Dx3 (Group 9)
[10] = Study # 1, tumor size 270 mg, Q1Dx5, dose 15 mpk

CC(=O)O[C@H]1C(=O)[C@@]2(C)[C@H]([C@H](OC(=O)c3ccccc3)[C@]3(O)C[C@H](OC(=O)[C@H](O)[C@@H](NC(=O)c4ccccc4)c4ccccc4)C(C)=C1C3(C)C)[C@]1(OC(C)=O)CO[C@@H]1C[C@@H]2O [Paclitaxel]
half-life (t1/2) [1]: 3.5 ± 0.80 h | maximum tolerated dose (MTD) ([2]; IV Q1Dx5, nontumored mice, no death or more than 20% body weight loss within 14 days of end of treatment): above 15 mg/kg/injection | tolerability / deaths (in words) [2, 6]: tolerated without deaths | Survival rate (end of study) [3, 7]: 40% | Tumor free mice (end of study) [3, 7]: 40% | animals tumor-free on Day 56 [3, 8]: four | median tumor growth delay [3, 8]: 31.8 days | deaths ([3]; paclitaxel 15 mg/kg/injection IV Q1Dx5 (Group 6), Day 2): one out of ten | animals euthanized due to ataxia ([3]; paclitaxel 15 mg/kg/injection IV Q1Dx5 (Group 6), Day 12): One | complete tumor regressions [3, 8]: five | tolerability / deaths (in words) [3, 9]: tolerated without deaths or mean body weight loss | complete tumor regressions [3, 9]: one | AUC(0-t) ([4]; female, athymic NCr-nu/nu, mouse, plasma, read-out: AUClast for paclitaxel in plasma): 37700 ng·h/mL | half-life ([4]; female, athymic NCr-nu/nu, mouse, plasma, read-out: apparent terminal elimination half-life of paclitaxel in plasma (converted)): 1 h | clearance ([4]; female, athymic NCr-nu/nu, mouse, plasma, read-out: total body clearance of paclitaxel (converted)): 8.33 mL/min/kg | Vd ([4]; female, athymic NCr-nu/nu, mouse, plasma, read-out: volume of distribution of paclitaxel at steady state): 0.658 L/kg | mean peak plasma concentration of paclitaxel ([4]; at 5 minutes (0.083 hours)): 32.9 µg/mL | maximum tolerated dose (MTD) ([5]; IV Q1Dx5, tumored mice): below 15 mg/kg/injection | tolerability / deaths (in words) [5, 6]: toxic | animals died before day 11 ([5]; Paclitaxel 15 mg/kg IV Q1Dx5, day 0 = first treatment): 4 of 5 | Survival rate (end of study) [5, 10]: 20% | Tumor free mice (end of study) [5, 10]: 0% | animals euthanized due to being moribund ([5]; paclitaxel 15 mg/kg/injection IV Q1Dx5, Days 20 and 21): two | deaths ([5]; paclitaxel 15 mg/kg/injection IV Q1Dx5, both deaths on Day 19): two out of five | tumor weight of the surviving animal ([5]; paclitaxel 15 mg/kg/injection, Day 13): 180 mg | tumor weight of the surviving animal ([5]; paclitaxel 15 mg/kg/injection, Day 47): 32 mg
